Test results: patent US20050164929A1, “Methods of preventing and treating inflammatory bowel disease” (LUPINE LOGIC, INC., priority 2000, published 2005)

Legend:
[1] = tested on: NIH 3T3 murine embryonic lung fibroblasts; experiment: BrdU incorporation (Studies L-117.01/02); format: cell-based, mouse; conditions: NIH 3T3, BrdU
Procedure: FIG. 19. […] Serum starved NIH 3T3 cells were treated with purified CG53135-01 (CG53135 in figure), 10% serum or vehicle only (control). DNA synthesis was measured in triplicate for each sample, using a BrdU incorporation assay. Data points represent average BrdU incorporation and bars represent standard error (SE).
(§1) Heterologous Protein Expression: CG53135-01 (batch 4A and 6) was used in these experiments. Protein was expressed using Escherichia coli (E. coli), BL21 (Novagen, Madison, Wis.), transformed with full-length CG53135-01 in a pETMY-hFGF20X/BL21 expression vector. Cells were harvested and disrupted, and then the soluble protein fraction was clarified by filtration and passed through a metal chelation column. The final protein fraction was dialyzed against phosphate buffered saline (PBS) plus 1 M L-arginine. Protein samples were stored at −70° C.
BrdU Incorporation: proliferative activity was measured by treatment of serum-starved cultured cells with a given agent and measurement of BrdU incorporation during DNA synthesis. Cells were cultured in respective manufacturer recommended basal growth medium supplemented with 10% fetal bovine serum or 10% calf serum as per manufacturer recommendations. Cells were grown in 96-well plates to confluence at 37° C. in 10% CO2/air (to subconfluence at 5% CO2 for dedifferentiated chondrocytes and NHOst). […]

[2] = tested on: Balb MK mouse keratinocytes; experiment: BrdU incorporation (Studies L-117.01/02); format: cell-based
Description: as §1
(§2) BrdU Incorporation: proliferative activity was measured by treatment of serum-starved cultured cells with a given agent and measurement of BrdU incorporation during DNA synthesis. Cells were cultured in respective manufacturer recommended basal growth medium supplemented with 10% fetal bovine serum or 10% calf serum as per manufacturer recommendations. Cells were grown in 96-well plates to confluence at 37° C. in 10% CO2/air (to subconfluence at 5% CO2 for dedifferentiated chondrocytes and NHOst). Cells were then starved in respective basal growth medium for 24-72 hours. CG53135 protein purified from E. coli or pCEP4/Sec or pCEP4/Sec-FGF 20× enriched conditioned medium was added (10 μL/100 μL of culture) for 18 hours. BrdU (10 μM final concentration) was then added and incubated with the cells for 5 hours. BrdU incorporation was assayed according to the manufacturer's specifications (Roche Molecular Biochemicals, Indianapolis, Ind.).

[3] = tested on: CCD 1106 KERTr human keratinocytes; experiment: BrdU incorporation (Studies L-117.01/02); format: cell-based
Description: as §1, §2

[4] = tested on: CCD-1070Sk normal human foreskin fibroblasts; experiment: BrdU incorporation (Studies L-117.01/02); format: cell-based
Description: as §1, §2

[5] = tested on: Jurkat, an acute T-lymphoblastic leukemia cell line; experiment: BrdU incorporation (Studies L-117.01/02); format: cell-based
Description: as §1, §2

[6] = tested on: TF-1, an erythroblastic leukemia cell line; experiment: BrdU incorporation (Studies L-117.01/02); format: cell-based
Description: as §1, §2

[7] = tested on: human aorta smooth muscle cells (HSMC); experiment: BrdU incorporation (Studies L-117.01/02); format: cell-based
Description: as §1, §2

[8] = tested on: human coronary artery smooth muscle cells; experiment: BrdU incorporation (Studies L-117.01/02); format: cell-based
Description: as §1, §2

[9] = tested on: human pulmonary artery smooth muscle cells; experiment: BrdU incorporation (Studies L-117.01/02); format: cell-based
Description: as §1, §2

[10] = tested on: mouse skeletal muscle cells; experiment: BrdU incorporation (Studies L-117.01/02); format: cell-based
Description: as §1, §2

[11] = tested on: primary human osteoblasts (NHOst); experiment: BrdU incorporation (Studies L-117.01/02); format: cell-based
Description: as §1, §2

[12] = tested on: rabbit synoviocyte cell line, HIG-82; experiment: BrdU incorporation (Studies L-117.01/02); format: cell-based
Description: as §1, §2

[13] = tested on: MG-63 osteosarcoma cell line; experiment: BrdU incorporation (Studies L-117.01/02); format: cell-based, human
Description: as §1
as §2, with “BrdU incorporation was assayed according to the manufacturer's specifications (Roche Molecular Biochemicals, Indianapolis, Ind.).” left out

[14] = tested on: breast epithelial cell line, B5589; experiment: BrdU incorporation (Studies L-117.01/02); format: cell-based, human
Description: as §1
as §2, with “BrdU incorporation was assayed according to the manufacturer's specifications (Roche Molecular Biochemicals, Indianapolis, Ind.).” left out

NIH 3T3 cells = experiment: Growth assay (cell count); format: cell-based, mouse; conditions: 1 μg, 48 hours
Procedure: FIG. 20. CG53135 stimulates Growth of NIH 3T3 Fibroblasts. Duplicate wells of serum starved NIH 3T3 cells were treated for […] with purified CG53135-01 (1 ug) or vehicle control. Cell counts for each well were determined in duplicate. Y— axis identifies cell number, which is the average of 4 cell counts (treatment duplicates×duplicate counts) and standard error (SE).
Growth Assay: growth activity was obtained by measuring cell number following treatment of cultured cells with a given agent for a specified period of time. In general, cells grown to ˜20% confluency in 6-well dishes were treated with basal medium supplemented with CG53135 or control, incubated for several days, trypsinized and counted using a Coulter Z1 Particle Counter.
To determine if recombinant CG53135-01 sustained cell growth, NIH 3T3 cells were cultured with 1 μg CG53135-01 or control for 48 hours and then counted (FIG. 20). CG53135 induced an approximately 2-fold increase in cell number relative to control in this assay.

[15] = tested on: bovine aortic endothelial cells; experiment: Cell survival and BrdU incorporation in endothelial cells; format: cell-based; conditions: BAEC
Procedure: as §2
(§3) Effects of CG53135 on Endothelial Cells: protein therapeutic agents may inhibit or promote angiogenesis, the process through which endothelial cells differentiate into capillaries. Because CG53135 belongs to the fibroblast growth factor family, some members of which have angiogenic properties, the antiangiogenic or pro-angiogenic effects of CG53135 on endothelial cell lines were evaluated. The following cell lines were chosen because they are cell types used in understanding angiogenesis in cancer: HUVEC (human umbilical vein endothelial cells), BAEC (bovine aortic endothelial cells), HMVEC-d (human endothelial, dermal capillary). These endothelial cell types undergo morphogenic differentiation and are representative of large vessel (HUVEC, BAEC) as well as capillary endothelial cells (HMVEC-d).

[16] = tested on: human dermal microvascular endothelial cells; experiment: as above; format: cell-based; conditions: HMVEC-d
Procedure: as §2, §3

[17] = tested on: human umbilical vein endothelial cells; experiment: as above; format: cell-based; conditions: HUVEC
Procedure: as §2, §3

HUVECS [18] = experiment: Tube formation; format: cell-based, human; conditions: HUVEC
HUVECS [19] = experiment: VEGF induced cell migration; format: cell-based, human; conditions: HUVEC
endothelial cells = experiment: Proliferation summary for variants; format: cell-based; conditions: in vitro
Procedure: (§4) Experiments were performed to evaluate the proliferative response of representative cell types to CG53135, e.g., a full-length tagged variant (CG53135-01), a deletion variant (CG53135-02), and a full-length codon-optimized untagged variant (CG53135-05).
(§5) CG53135-02 (batch 1 and 13) was also used in these experiments. Protein was expressed in E. coli, BLR (DE3) (Novagen), transformed with the deletion variant CG53135-02 inserted into a pET24a vector (Novagen). A research cell bank (RCB) was produced and cell paste containing CG53135-02 was produced by fermentation of cells originating from the RCB. Cell membranes were disrupted by high-pressure homogenization, and lysate was clarified by centrifugation. CG53135-02 was purified by ion exchange chromatography. The final protein fraction was dialyzed against the formulation buffer (100 mM citrate, 1 mM ethylenediaminetetraacetic acid (EDTA), and 1 M L-arginine).
(§6) CG53135-05, DEV10, which were also used in these experiments, was prepared by Cambrex Biosciences (Hopkinton, Mass.) according to Process 1 as described in Section 6.18.1, infra.
as §2
(§7) The above described experiments were also performed using CG53135-02 and CG53135-05 protein products, and the results are summarized in the Conclusion section below.

[20] = tested on: mesenchymal and epithelial cells; experiment: Proliferation summary for variants; format: cell-based; conditions: in vitro
Procedure: as §4, §5, §6, §2, §7

CG53135-01: FGF-20 wild type, stop codon removed; SEQ ID NOs 1 and 2; expressed as tagged full-length variant
half maximal concentration for induction of DNA synthesis [1]: ~10 ng/mL
induction of DNA synthesis [1]: dose-dependent manner
induction of DNA synthesis [2]: induced DNA synthesis
induction of DNA synthesis [3]: induced DNA synthesis
induction of DNA synthesis [4]: induced DNA synthesis
BrdU incorporation response [5]: did not show any response
effect on DNA synthesis [6]: no stimulatory effect
induction of DNA synthesis [7]: did not induce any significant increase in DNA synthesis
induction of DNA synthesis [8]: did not induce any significant increase in DNA synthesis
induction of DNA synthesis [9]: did not induce any significant increase in DNA synthesis
induction of DNA synthesis [10]: did not induce any significant increase in DNA synthesis
induction of DNA synthesis [11]: did not induce any significant increase in DNA synthesis
induction of DNA synthesis [12]: induced DNA synthesis
induction of DNA synthesis [13]: induced DNA synthesis
induction of DNA synthesis [14]: induced DNA synthesis
increase in cell number relative to control (NIH 3T3 cells): approximately 2 fold
cell survival and BrdU incorporation [15]: did not alter cell survival or have stimulatory effects on BrdU incorporation
cell survival and BrdU incorporation [16]: did not alter cell survival or have stimulatory effects on BrdU incorporation
cell survival and BrdU incorporation [17]: did not alter cell survival or have stimulatory effects on BrdU incorporation
tube formation (HUVECS [18]): did not inhibit tube formation
VEGF induced cell migration (HUVECS [19]): had no effect
proliferation of endothelial cells (endothelial cells): not
proliferation of mesenchymal and epithelial cells [20]: induces a proliferative response
